System: IgA in the bile
Assay: IgA in bile by indirect ELISA in birds given 1027 with or without adjuvants
Format: in vivo, chickens
Conditions: day 21 after oral vaccine and adjuvant in 1027
Excerpt: IgA is the antibody class associated with resistance to diseases which attack the intestinal mucosa, such as coccidiosis.
The data presented in FIG. 5 were obtained by indirect enzyme linked immunosorbent assay (ELISA) using monoclonal mouse anti-chicken IgA as the first antibody, polyclonal goat anti-chicken IgA as the second antibody, and biotin-conjugated anti-goat immunoglobulin for detection. Samples were read on an automated ELISA plate reader, and are corrected for differences in dilution.

## c1ccc([C@H]2CN3CCSC3=N2)cc1 [levamisole]
  IgA in the bile vs 1027 alone: higher day 21 biliary IgA levels

— patent US6733759B2, “Nutrient formulation and process for enhancing the health, livability, cumulative weight gain or feed efficiency in poultry and other animals” (Novus International, Inc., priority 1995, dated 2004)
